From patent US10597388B2, “Pyridazinone herbicides” (FMC CORPORATION, priority 2014, dated 2020)

Assays:
Assay type in all cases: in vivo
[1] = tested on: ragweed (common ragweed, Ambrosia elatior); assay: Test A greenhouse herbicide test, pre- and postemergence
How it was run: (§1)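 Seeds in loam–sand blend received a preemergence directed soil spray; plants at 2–10 cm, one- to two-leaf stage, received postemergence sprays. Compounds in a non-phytotoxic solvent with surfactant. After about 10 d in a greenhouse, injury rated visually versus untreated controls on a 0–100 scale (100 = complete control).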

[2] = tested on: pigweed (Amaranthus retroflexus); assay: as above
How it was run: as §1

[3] = tested on: wheat (Triticum aestivum); assay: as above; settings: Postemergence
How it was run: as §1

[4] = tested on: barnyardgrass (Echinochloa crus-galli); assay: as above
How it was run: as §1

[5] = tested on: ryegrass, Italian (Italian ryegrass, Lolium multiflorum); assay: as above
How it was run: as §1

corn (Zea mays) = assay: as above; settings: Postemergence
How it was run: as §1

[6] = tested on: foxtail, giant (giant foxtail, Setaria faberii); assay: as above
How it was run: as §1

kochia (Kochia scoparia) = assay: as above
How it was run: as §1

[7] = tested on: ryegrass, Italian (Italian ryegrass, Lolium multiflorum); assay: Test C greenhouse herbicide test, pre- and postemergence
How it was run: (§2)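 Pre- and postemergence greenhouse screen; values are visual control ratings, 0 meaning no effect and 100 complete kill, assigned relative to untreated plants after 13 to 15 d.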

[8] = tested on: nutsedge, yellow (yellow nutsedge, Cyperus esculentus); assay: as above
How it was run: as §2

[9] = tested on: lambsquarters (Chenopodium album); assay: as above
How it was run: as §2

[10] = Postemergence, 125 g ai/ha, 0 to 100 scale where 0 is no effect and 100 is complete control
[11] = Postemergence, 500 g ai/ha, visual rating after approx. 10 d, 0 to 100 scale (0 no effect, 100 complete control)
[12] = Preemergence, 125 g ai/ha, 0 to 100 scale where 0 is no effect and 100 is complete control
[13] = Preemergence, 500 g ai/ha, 0 to 100 scale where 0 is no effect and 100 is complete control
[14] = 125 g ai/ha, 0 to 100 scale where 0 is no effect and 100 is complete control
[15] = 500 g ai/ha, visual rating after approx. 10 d, 0 to 100 scale (0 no effect, 100 complete control)
[16] = Postemergence, 31 g ai/ha, scale 0 to 100 (0 no effect, 100 complete control)
[17] = Postemergence, 62 g ai/ha, 0 to 100 scale (0 no effect, 100 complete control)
[18] = Postemergence, 250 g ai/ha, scale 0 to 100, 0 no effect, 100 complete control, 13 to 15 d
[19] = Preemergence, 31 g ai/ha, scale 0 to 100, 0 is no effect, 100 is complete control
[20] = Preemergence, 62 g ai/ha, scale 0 to 100, 0 is no effect, 100 is complete control
[21] = Preemergence, 125 g ai/ha, scale 0 to 100, 0 is no effect, 100 is complete control
[22] = Preemergence, 250 g ai/ha, scale 0 to 100 (0 no effect, 100 complete control)
[23] = postemergence, 125 g ai/ha, scale 0 to 100, 0 no effect, 100 complete control

CC(=O)Oc1c(Br)nn(C)c(=O)c1-c1c(C)ccc2ccccc12 [Compound 129]
Plant response rating, Ragweed [1, 10]: 100
Plant response rating, Ragweed [1, 11]: 100
Ragweed plant response rating [1, 12]: 90
Plant response rating, Ragweed [1, 13]: 90
Plant response rating, Pigweed [2, 10]: 90
Plant response rating, Pigweed [2, 11]: 100
Pigweed plant response rating [2, 12]: 100
Plant response rating, Pigweed [2, 13]: 100
Plant response rating, Wheat [3, 14]: 20
Plant response rating, Wheat [3, 15]: 80
Plant response rating, Barnyardgrass [4, 10]: 90
Plant response rating, Barnyardgrass [4, 11]: 100
Barnyardgrass plant response rating [4, 12]: 90
Plant response rating, Barnyardgrass [4, 13]: 100
Plant response rating, Ryegrass, Italian [5, 10]: 100
Plant response rating, Ryegrass, Italian [5, 11]: 100
Ryegrass, Italian plant response rating [5, 12]: 100
Plant response rating, Ryegrass, Italian [5, 13]: 100
Plant response rating, Corn (corn (Zea mays); [14]): 10
Plant response rating, Corn (corn (Zea mays); [15]): 80
Plant response rating, Foxtail, Giant [6, 10]: 90
Plant response rating, Foxtail, Giant [6, 11]: 100
Foxtail, Giant plant response rating [6, 12]: 90
Plant response rating, Foxtail, Giant [6, 13]: 100
Plant response rating, Kochia (kochia (Kochia scoparia); [10]): 70
Plant response rating, Kochia (kochia (Kochia scoparia); [11]): 90
Kochia plant response rating (kochia (Kochia scoparia); [12]): 70
Plant response rating, Kochia (kochia (Kochia scoparia); [13]): 90
Plant response rating, Ryegrass, Italian [7, 16]: 70
Ryegrass, Italian plant response rating [7, 17]: 90
Plant response rating, Ryegrass, Italian [7, 18]: 95
Plant response rating, Ryegrass, Italian [7, 19]: 90
Plant response rating, Ryegrass, Italian [7, 20]: 90
Plant response rating, Ryegrass, Italian [7, 21]: 95
Ryegrass, Italian plant response rating [7, 22]: 95
Ryegrass, Italian plant response rating [7, 23]: 95
Plant response rating, Nutsedge, Yellow [8, 16]: 60
Nutsedge, Yellow plant response rating [8, 17]: 75
Plant response rating, Nutsedge, Yellow [8, 18]: 95
Plant response rating, Nutsedge, Yellow [8, 19]: 55
Plant response rating, Nutsedge, Yellow [8, 20]: 85
Plant response rating, Nutsedge, Yellow [8, 21]: 90
Nutsedge, Yellow plant response rating [8, 22]: 95
Nutsedge, Yellow plant response rating [8, 23]: 85
Plant response rating, Lambsquarters [9, 16]: 95
Lambsquarters plant response rating [9, 17]: 95
Plant response rating, Lambsquarters [9, 18]: 98
Plant response rating, Lambsquarters [9, 19]: 85
Plant response rating, Lambsquarters [9, 20]: 80
Plant response rating, Lambsquarters [9, 21]: 85
Lambsquarters plant response rating [9, 22]: 90
Lambsquarters plant response rating [9, 23]: 95

CCC(=O)Oc1c(C)nn(C)c(=O)c1-c1ccc(Br)c2ccccc12 [Compound 133]
Plant response rating, Ragweed [1, 10]: 100
Plant response rating, Ragweed [1, 11]: 100
Ragweed plant response rating [1, 12]: 90
Plant response rating, Ragweed [1, 13]: 100
Plant response rating, Pigweed [2, 10]: 90
Plant response rating, Pigweed [2, 11]: 100
Pigweed plant response rating [2, 12]: 80
Plant response rating, Pigweed [2, 13]: 100
Plant response rating, Wheat [3, 14]: 20
Plant response rating, Wheat [3, 15]: 30
Plant response rating, Barnyardgrass [4, 10]: 20
Plant response rating, Barnyardgrass [4, 11]: 90
Barnyardgrass plant response rating [4, 12]: 20
Plant response rating, Barnyardgrass [4, 13]: 50
Plant response rating, Ryegrass, Italian [5, 10]: 100
Plant response rating, Ryegrass, Italian [5, 11]: 100
Ryegrass, Italian plant response rating [5, 12]: 100
Plant response rating, Ryegrass, Italian [5, 13]: 100
Plant response rating, Corn (corn (Zea mays); [14]): 10
Plant response rating, Corn (corn (Zea mays); [15]): 50
Plant response rating, Foxtail, Giant [6, 10]: 20
Plant response rating, Foxtail, Giant [6, 11]: 90
Foxtail, Giant plant response rating [6, 12]: 40
Plant response rating, Foxtail, Giant [6, 13]: 70
Plant response rating, Kochia (kochia (Kochia scoparia); [10]): 90
Plant response rating, Kochia (kochia (Kochia scoparia); [11]): 100
Kochia plant response rating (kochia (Kochia scoparia); [12]): 40
Plant response rating, Kochia (kochia (Kochia scoparia); [13]): 100
Plant response rating, Ryegrass, Italian [7, 16]: 5
Ryegrass, Italian plant response rating [7, 17]: 10
Plant response rating, Ryegrass, Italian [7, 18]: 5
Plant response rating, Ryegrass, Italian [7, 19]: 90
Plant response rating, Ryegrass, Italian [7, 20]: 95
Plant response rating, Ryegrass, Italian [7, 21]: 100
Ryegrass, Italian plant response rating [7, 22]: 100
Ryegrass, Italian plant response rating [7, 23]: 35
Plant response rating, Nutsedge, Yellow [8, 16]: 75
Nutsedge, Yellow plant response rating [8, 17]: 90
Plant response rating, Nutsedge, Yellow [8, 18]: 98
Plant response rating, Nutsedge, Yellow [8, 19]: 20
Plant response rating, Nutsedge, Yellow [8, 20]: 55
Plant response rating, Nutsedge, Yellow [8, 21]: 70
Nutsedge, Yellow plant response rating [8, 22]: 95
Nutsedge, Yellow plant response rating [8, 23]: 95
Plant response rating, Lambsquarters [9, 16]: 95
Lambsquarters plant response rating [9, 17]: 98
Plant response rating, Lambsquarters [9, 18]: 100
Plant response rating, Lambsquarters [9, 19]: 90
Plant response rating, Lambsquarters [9, 20]: 90
Plant response rating, Lambsquarters [9, 21]: 95
Lambsquarters plant response rating [9, 22]: 95
Lambsquarters plant response rating [9, 23]: 100
